Test: in vitro
Settings: human, hela cells, % viability

| SMILES | viability at 28.5 h, 10 µM [%] | viability at 28.5 h, 10 µM (bulk resorufin, single well) [%] |
| --- | --- | --- |
| O=C(c1sc2cc(Cl)ccc2c1Cl)N1CCN(Cc2ccc3c(c2)OCO3)CC1 [CBK074431] | 101 | – |
| COc1ccc(CCNc2oc(COc3ccccc3)nc2C#N)cc1 [CBK074469] | 90.2 | – |
| Nc1nc(-c2ccccc2)nn1C(=O)CCc1ccccc1 [CBK074471] | 95.9 | – |
| CCOc1cccc(CNc2ccc(O)cc2)c1OCc1ccccc1Cl [CBK074473] | 87.7 | – |
| COc1ccc(CCNCc2ccc3c(c2)OCO3)cc1 [CBK074488] | – | 95.7 |
| CCOC(=O)COc1ccc(S(=O)(=O)N2CCN(Cc3ccc4c(c3)OCO4)CC2)cc1 [CBK074492] | 101 | – |
| O=C(CN1CCN(C/C=C/c2ccccc2)CC1)Nc1ccc(C2CCCCC2)cc1 [CBK074497] | 112 | – |
| COc1cc(CN2CCN(S(=O)(=O)c3ccc(Cl)cc3)CC2)cc(OC)c1OC [CBK074499] | 91.3 | – |
| CCOc1cccc(N2C(=O)c3cc(Br)ccc3NC2c2ccc(OC)c(OC)c2)c1 (stereo not shown) [CBK074502] | 88.4 | – |
| COc1ccc(S(=O)(=O)N2CCN(Cc3ccc4c(c3)OCO4)CC2)c2ccccc12 [CBK074521] | 96.4 | – |
| COc1ccc(-n2c(CNCc3ccc4c(c3)OCO4)nc3ccccc3c2=O)cc1 [CBK074522] | 102 | – |
| Nc1nc(NCc2ccccc2)nc(-c2cc(Cl)ccc2O)n1 [CBK074526] | 102 | – |
| COc1cccc(CN2CCN(C(=O)c3cccc(F)c3)CC2)c1OC [CBK074527] | 85.1 | – |
| COc1cc(CN2CCN(C(=O)c3cccc(Cl)c3)CC2)cc(OC)c1OC [CBK074530] | 97.1 | – |
| COc1cccc(CNc2ccc(N3CCCCC3)cc2)c1OCc1cccs1 [CBK074531] | 96.5 | – |
| COc1cc(-c2nc(S(=O)(=O)c3ccccc3)c(N3CCOCC3)o2)cc(OC)c1OC [CBK074539] | 90.1 | – |
| O=C1CC(N2CCN(Cc3ccc4c(c3)OCO4)CC2)C(=O)N1c1ccc(Br)cc1 (stereo not shown) [CBK074544] | 89.9 | – |
| CCS(=O)(=O)N1CCN(Cc2ccc3c(c2)OCO3)CC1 [CBK074545] | 92.2 | – |
| O=C(NCc1ccccc1)c1ccc(NCc2ccccc2)c([N+](=O)[O-])c1 [CBK074547] | 92.9 | – |
| Nc1nc(NCCc2ccccc2)nc(-c2cc(Cl)ccc2O)n1 [CBK074551] | 91.8 | – |
| CCOC(=O)C1CCCN(Cc2ccc3c(c2)OCO3)C1 (stereo not shown) [CBK074569] | 97.7 | – |
| CS(=O)(=O)N(CC(=O)N1CCN(Cc2ccc3c(c2)OCO3)CC1)c1cccc(F)c1 [CBK074572] | 102 | – |

| SMILES | viability at 28.5 h, 10 µM [%] | viability at 28.5 h, 10 µM (bulk resorufin, single well) [%] |
| --- | --- | --- |
| C=CCOc1c(Br)cc(CNc2cccc(C(=O)O)c2)cc1OC [CBK074581] | 97.3 | – |
| COc1cc(CNc2ccc(N3CCCCC3)cc2)cc(Cl)c1OCc1cccs1 [CBK074586] | 101 | – |
| COc1ccc(-c2cc(-c3c(O)ccc4c(C)cc(=O)oc34)nc(N)n2)cc1OC [CBK074619] | 85 | – |
| COc1ccc(C(=O)CN2CCN(CCN3C(=O)c4cccc5cccc(c45)C3=O)CC2)cc1 [CBK074628] | 75.7 | – |
| O=C(CN1CCCN(c2ncc(C(F)(F)F)cc2Cl)CC1)Nc1c(F)cccc1F [CBK074636] | 92.5 | – |
| OC(CNCCNc1nccc(C(F)(F)F)n1)Cn1ccc2ccccc21 (stereo not shown) [CBK074642] | 106 | – |
| OC(COc1ccc2c(c1)OCO2)CN1CCCN(c2nc3ccc(Cl)cc3s2)CC1 (stereo not shown) [CBK074646] | 102 | – |
| OC(CSc1ccccc1)CN1CCC(Nc2nccc(C(F)(F)F)n2)CC1 (stereo not shown) [CBK074648] | 94.5 | – |
| OC(CNCc1ccc2c(c1)OCO2)COc1ccc(Cl)c(Cl)c1 (stereo not shown) [CBK074649] | 89.3 | – |
| O=S(=O)(NCCCN1CCN(Cc2ccccc2)CC1)c1cccc(Cl)c1Cl [CBK074655] | 114 | – |
| COc1ccc(CCNc2ccc(C(F)(F)F)cc2[N+](=O)[O-])cc1OC [CBK074656] | 87.4 | – |
| OC(CSc1ccccc1)CN1CCN(c2nc(-c3ccccc3)ns2)CC1 (stereo not shown) [CBK074677C] | 110 | – |
| O=C(CN1CCN(c2ccc(C(F)(F)F)cn2)CC1)Nc1ccc2c(c1)OCO2 [CBK074680] | 102 | – |
| OC(CNCc1ccc2c(c1)OCO2)CSc1ccccc1 (stereo not shown) [CBK074684] | 101 | – |
| Cc1ccc(OCC(O)CN2CCN(c3nc(-c4ccccc4)ns3)CC2)c([N+](=O)[O-])c1 (stereo not shown) [CBK074696] | 95.3 | – |
| CC(C(=O)c1ccc(-c2ccccc2F)cc1)N1CCN(c2ccc(C#N)cc2)CC1 (stereo not shown) [CBK074706] | 92 | – |
| OC(CN1CCN(c2ccc(C(F)(F)F)cn2)CC1)c1ccc2c(c1)OCCO2 (stereo not shown) [CBK074707] | 104 | – |
| Cc1ccc(Oc2ncccc2NC(=O)CN2CCC(NC(=O)c3ccccc3)CC2)c2c1CCC2 [CBK074715] | 112 | – |
| O=C(NC1CCN(Cc2c(F)cccc2Cl)CC1)C1CCN(C(=O)OCc2ccccc2)CC1 [CBK074720] | 108 | – |
| O=C(CN1CCN(c2nc3cc(Cl)ccc3s2)CC1)c1ccc2c(c1)OCCCO2 [CBK074737] | 96.6 | – |
| O=S(=O)(c1cc(Cl)sc1Cl)N1CCN(Cc2ccc3c(c2)OCO3)CC1 [CBK074743] | 92.6 | – |
| O=S(=O)(c1ccc(F)cc1F)N1CCN(Cc2ccc3c(c2)OCO3)CC1 [CBK074744] | 91.7 | – |

| SMILES | viability at 28.5 h, 10 µM [%] | viability at 28.5 h, 10 µM (bulk resorufin, single well) [%] |
| --- | --- | --- |
| O=C(Nc1cccc2ccccc12)N1CCN(Cc2ccc3c(c2)OCO3)CC1 [CBK074747] | 89 | – |
| O=C(O)c1ccccc1C(=O)N1CCN(Cc2ccc3c(c2)OCO3)CC1 [CBK074751] | 97.9 | – |
| O=C(Nc1ccc(OC(F)(F)F)cc1)N1CCN(Cc2ccc3c(c2)OCO3)CC1 [CBK074754] | 99.5 | – |
| O=C(c1cc(C(F)(F)F)cc(C(F)(F)F)c1)N1CCN(Cc2ccc3c(c2)OCO3)CC1 [CBK074756] | 98.2 | – |
| OC(CN1CCN(Cc2ccc3c(c2)OCO3)CC1)c1ccccc1 (stereo not shown) [CBK074759] | 82.8 | – |
| COc1cc(OCc2ccccc2)ccc1CN1CCN(Cc2ccc3c(c2)OCO3)CC1 [CBK074768] | 97.9 | – |
| O=C(O)CC(CC(=O)N1CCN(Cc2ccc3c(c2)OCO3)CC1)c1ccccc1 (stereo not shown) [CBK074769] | 96 | – |
| O=C(CNC1CCN(Cc2ccccc2)CC1)Nc1ccc(Cl)cc1C(=O)c1ccccc1Cl [CBK074770] | 107 | – |
| c1ccc(CN2CCN(Cc3c[nH]c(-c4ccccc4)n3)CC2)cc1 [CBK074775] | 84.6 | – |
| O=C(CN1CCN(C(=O)C2COc3ccccc3O2)CC1)Nc1ccc2c(c1)OCCO2 (stereo not shown) [CBK074777] | 111 | – |
| O=C(CN1CCN(Cc2ccccc2)CC1)Nc1ccc(C(F)(F)F)cc1Cl [CBK074781] | 103 | – |
| O=C(CN1CCN(Cc2ccccc2)CC1)Nc1ccccc1Oc1ccccc1 [CBK074782] | 90.2 | – |
| O=C(CCN1CCN(C(c2ccccc2)c2ccccc2)CC1)c1ccccc1 [CBK074788] | 111 | – |
| O=C(Nc1ccc(OCc2ccccc2)cc1)OCC1CN(Cc2ccccc2)CCO1 (stereo not shown) [CBK074792] | 102 | – |
| O=S(=O)(CCN1CCN(Cc2ccccc2)CC1)c1ccc(F)cc1 [CBK074809] | 108 | – |
| O=C1c2ccccc2C(=O)N1CCN1CCN(Cc2ccccc2)CC1 [CBK074813] | 110 | – |
| COc1ccc(CCNc2ccccc2[N+](=O)[O-])cc1OC [CBK074819] | 104 | – |
| Nc1ccccc1SC(CC(=O)c1ccccc1)c1ccc2c(c1)OCO2 (stereo not shown) [CBK074823] | 80.2 | – |
| O=S(=O)(Cc1ccc(Cl)cc1)N1CCN(Cc2ccc3c(c2)OCO3)CC1 [CBK074827] | 101 | – |
| O=S1(=O)CCN(Cc2ccc3c(c2)OCCCO3)CC1 [CBK074831] | 101 | – |
| COc1ccccc1N1CCN(CCCCNS(=O)(=O)c2ccc(Cl)c(Cl)c2)CC1 [CBK074837] | 97.8 | – |
| O=C(CN1C(=O)c2ccccc2C1=O)N1CCN(Cc2ccc3c(c2)OCO3)CC1 [CBK074846] | 97.3 | – |

| SMILES | viability at 28.5 h, 10 µM [%] | viability at 28.5 h, 10 µM (bulk resorufin, single well) [%] |
| --- | --- | --- |
| O=C1c2cccc3cccc(c23)C(=O)N1CCN1CCN(CC(O)COc2ccc3c(c2)OCO3)CC1 (stereo not shown) [CBK074849C] | 87.4 | – |
| OC(COCc1ccc2c(c1)OCO2)CN1CCN(C(c2ccccc2)c2ccccc2)CC1 (stereo not shown) [CBK074850C] | 83.2 | – |
| OC(COCc1ccccc1)CN1CCN(c2ccccc2F)CC1 (stereo not shown) [CBK074851C] | 92.6 | – |
| OC(COc1ccccc1)CN1CCN(Cc2ccccc2)CC1 (stereo not shown) [CBK074852C] | 93 | – |
| OC(COCc1ccc(Cl)cc1)CN1CCN(C(c2ccccc2)c2ccccc2)CC1 (stereo not shown) [CBK074857C] | 86.3 | – |
| CC(CN1CCN(Cc2ccccc2)CC1)N(C(=O)c1ccoc1)c1ccccn1 (stereo not shown) [CBK074861C] | 92.1 | – |
| C=C(C)c1cccc(C(C)(C)NC(=O)N2CCC(C(=O)NC(c3ccc(OC)nc3)c3ccccc3C)CC2)c1 (stereo not shown) [CBK074871] | 92.2 | – |
| Cc1ccc(-n2c(O)nnc2-c2ccc(Cl)c(Cl)c2)cc1 [CBK074887] | 94.5 | – |
| Oc1nnc(-c2ccc(Cl)c(Cl)c2)n1C1CCCCC1 [CBK074888] | 97.9 | – |
| c1ccc(CNc2nnc(-c3ccccc3)s2)cc1 [CBK074928] | 87.7 | – |
| COC(=O)CCC(=O)N1CCc2c([nH]c3ccccc23)C12CCN(CCCc1ccccc1OC)C2 (stereo not shown) [CBK074952] | 93.9 | – |
| Cn1c(-c2ccc(C(=O)O)cc2)cc2oc(-c3ccccc3)nc2c1=O [CBK074957] | 98 | – |
| CSc1nnc(-c2ccccc2[N+](=O)[O-])n1CC(C)C [CBK074959] | 98.4 | – |
| COc1ccc([C@@]23CC[C@@H](NC(=O)c4ccc(F)c(C(F)(F)F)c4)C[C@@H]2N(C)CC3)cc1OC [CBK074967T] | 93.6 | – |
| O=S(=O)(Nc1cc(OC2CCNCC2)c2occc2c1)c1c(Cl)cccc1Cl [CBK074989C] | 64.3 | – |
| CCCc1[nH]nc(O)c1Cc1ccc(Cl)cc1 [CBK075013] | 90 | – |
| CCCc1[nH]nc(O)c1Cc1ccc(F)cc1F [CBK075015] | 85.7 | – |
| CCCc1[nH]nc(O)c1Cc1ccc(C(C)(C)C)cc1 [CBK075028] | 79.5 | – |
| CCCc1[nH]nc(O)c1Cc1c(F)cccc1[N+](=O)[O-] [CBK075029] | 89.5 | – |

From article PMC12040169 (PLOS Biology, 2025)
